Results: ChEMBL document CHEMBL4507303, “Data for DCP probe TP-004” (2021)
The source made the active and inactive calls. No cut-off for these calls is given here.

Tests used:
[1] = molecular target: Casein kinase I isoform epsilon (Homo sapiens) (UniProt P49674); conditions: Compound concentration 1000.0 nM
[2] = molecular target: Serine/threonine-protein kinase PRP4 homolog (Homo sapiens) (UniProt Q13523); conditions: Compound concentration 1000.0 nM
[3] = molecular target: Serine/threonine-protein kinase Sgk3 (Homo sapiens) (UniProt Q96BR1); conditions: Compound concentration 1000.0 nM
[4] = molecular target: Muscle, skeletal receptor tyrosine-protein kinase (Homo sapiens) (UniProt O15146); conditions: Compound concentration 1000.0 nM
[5] = test system: Fibroblast growth factor receptor 3 (Homo sapiens), P22607 [G697C]; conditions: Compound concentration 1000.0 nM
[6] = molecular target: Cyclin-dependent kinase 19 (Homo sapiens) (UniProt Q9BWU1); conditions: Compound concentration 1000.0 nM
[7] = molecular target: Serine/threonine-protein kinase TAO3 (Homo sapiens) (UniProt Q9H2K8); conditions: Compound concentration 1000.0 nM
[8] = test system: Phosphatidylinositol 4,5-bisphosphate 3-kinase catalytic subunit alpha isoform (Homo sapiens), P42336 [C420R]; conditions: Compound concentration 1000.0 nM
[9] = molecular target: SRSF protein kinase 3 (Homo sapiens) (UniProt Q9UPE1); conditions: Compound concentration 1000.0 nM
[10] = molecular target: Platelet-derived growth factor receptor alpha (Homo sapiens) (UniProt P16234); conditions: Compound concentration 1000.0 nM
[11] = molecular target: Activin receptor type-2B (Homo sapiens) (UniProt Q13705); conditions: Compound concentration 1000.0 nM
[12] = molecular target: Ephrin type-A receptor 5 (Homo sapiens) (UniProt P54756); conditions: Compound concentration 1000.0 nM
[13] = molecular target: Serine/threonine-protein kinase WNK4 (Homo sapiens) (UniProt Q96J92); conditions: Compound concentration 1000.0 nM
[14] = molecular target: Proto-oncogene tyrosine-protein kinase Src (Homo sapiens) (UniProt P12931); conditions: Compound concentration 1000.0 nM
[15] = molecular target: Phosphatidylinositol 4,5-bisphosphate 3-kinase catalytic subunit delta isoform (Homo sapiens) (UniProt O00329); conditions: Compound concentration 1000.0 nM
[16] = molecular target: Atypical kinase COQ8A, mitochondrial (Homo sapiens) (UniProt Q8NI60); conditions: Compound concentration 1000.0 nM
[17] = molecular target: Methionine aminopeptidase 2 (Homo sapiens, UniProt P50579); assay: Biochemical activity-MetAP2 using Co
[18] = molecular target: Cyclin-dependent kinase 2 (Homo sapiens) (UniProt P24941); conditions: Compound concentration 1000.0 nM
[19] = molecular target: Insulin receptor (Homo sapiens) (UniProt P06213); conditions: Compound concentration 1000.0 nM
[20] = molecular target: Kappa-type opioid receptor (Homo sapiens) (UniProt P41145); conditions: Compound concentration 10.0 uM
[21] = test system: Proto-oncogene tyrosine-protein kinase receptor Ret (Homo sapiens), P07949 [V804L]; conditions: Compound concentration 1000.0 nM
[22] = molecular target: Cyclin-dependent kinase 5 (Homo sapiens) (UniProt Q00535); conditions: Compound concentration 1000.0 nM
[23] = test system: Phosphatidylinositol 4,5-bisphosphate 3-kinase catalytic subunit alpha isoform (Homo sapiens), P42336 [E542K]; conditions: Compound concentration 1000.0 nM
[24] = molecular target: Calcium/calmodulin-dependent protein kinase type II subunit beta (Homo sapiens) (UniProt Q13554); conditions: Compound concentration 1000.0 nM
[25] = molecular target: Dual specificity tyrosine-phosphorylation-regulated kinase 1A (Homo sapiens) (UniProt Q13627); conditions: Compound concentration 1000.0 nM
[26] = molecular target: Bone morphogenetic protein receptor type-1A (Homo sapiens) (UniProt P36894); conditions: Compound concentration 1000.0 nM
[27] = molecular target: Calcium/calmodulin-dependent protein kinase type IV (Homo sapiens) (UniProt Q16566); conditions: Compound concentration 1000.0 nM
[28] = molecular target: Myosin light chain kinase (Homo sapiens) (UniProt Q32MK0); conditions: Compound concentration 1000.0 nM
[29] = molecular target: Serine/threonine-protein kinase Sgk1 (Homo sapiens) (UniProt O00141); conditions: Compound concentration 1000.0 nM
[30] = molecular target: SRSF protein kinase 1 (Homo sapiens) (UniProt Q96SB4); conditions: Compound concentration 1000.0 nM
[31] = molecular target: Microtubule-associated serine/threonine-protein kinase 1 (Homo sapiens) (UniProt Q9Y2H9); conditions: Compound concentration 1000.0 nM
[32] = molecular target: Dual specificity mitogen-activated protein kinase kinase 7 (Homo sapiens) (UniProt O14733); conditions: Compound concentration 1000.0 nM
[33] = molecular target: Dual specificity testis-specific protein kinase 1 (Homo sapiens) (UniProt Q15569); conditions: Compound concentration 1000.0 nM
[34] = molecular target: Histamine H3 receptor (Homo sapiens) (UniProt Q9Y5N1); conditions: Compound concentration 10.0 uM
[35] = molecular target: Serine/threonine-protein kinase SBK1 (Homo sapiens) (UniProt Q52WX2); conditions: Compound concentration 1000.0 nM
[36] = molecular target: Receptor-type tyrosine-protein kinase FLT3 (Homo sapiens) (UniProt P36888); conditions: Compound concentration 1000.0 nM
[37] = molecular target: Aurora kinase C (Homo sapiens) (UniProt Q9UQB9); conditions: Compound concentration 1000.0 nM
[38] = test system: Phosphatidylinositol 4,5-bisphosphate 3-kinase catalytic subunit alpha isoform (Homo sapiens), P42336 [E545K]; conditions: Compound concentration 1000.0 nM
[39] = molecular target: Tyrosine-protein kinase Blk (Homo sapiens) (UniProt P51451); conditions: Compound concentration 1000.0 nM
[40] = molecular target: Histamine H2 receptor (Homo sapiens) (UniProt P25021); conditions: Compound concentration 10.0 uM
[41] = molecular target: Fibroblast growth factor receptor 4 (Homo sapiens) (UniProt P22455); conditions: Compound concentration 1000.0 nM
[42] = molecular target: Alpha-1A adrenergic receptor (Homo sapiens) (UniProt P35348); conditions: Compound concentration 10.0 uM
[43] = molecular target: TGF-beta receptor type-2 (Homo sapiens) (UniProt P37173); conditions: Compound concentration 1000.0 nM
[44] = molecular target: Tyrosine-protein kinase JAK3 (Homo sapiens) (UniProt P52333); conditions: Compound concentration 1000.0 nM
[45] = molecular target: Serine/threonine-protein kinase N2 (Homo sapiens) (UniProt Q16513); conditions: Compound concentration 1000.0 nM

SRSF protein kinase 3 (Homo sapiens), sequence (Q9UPE1 whole entry): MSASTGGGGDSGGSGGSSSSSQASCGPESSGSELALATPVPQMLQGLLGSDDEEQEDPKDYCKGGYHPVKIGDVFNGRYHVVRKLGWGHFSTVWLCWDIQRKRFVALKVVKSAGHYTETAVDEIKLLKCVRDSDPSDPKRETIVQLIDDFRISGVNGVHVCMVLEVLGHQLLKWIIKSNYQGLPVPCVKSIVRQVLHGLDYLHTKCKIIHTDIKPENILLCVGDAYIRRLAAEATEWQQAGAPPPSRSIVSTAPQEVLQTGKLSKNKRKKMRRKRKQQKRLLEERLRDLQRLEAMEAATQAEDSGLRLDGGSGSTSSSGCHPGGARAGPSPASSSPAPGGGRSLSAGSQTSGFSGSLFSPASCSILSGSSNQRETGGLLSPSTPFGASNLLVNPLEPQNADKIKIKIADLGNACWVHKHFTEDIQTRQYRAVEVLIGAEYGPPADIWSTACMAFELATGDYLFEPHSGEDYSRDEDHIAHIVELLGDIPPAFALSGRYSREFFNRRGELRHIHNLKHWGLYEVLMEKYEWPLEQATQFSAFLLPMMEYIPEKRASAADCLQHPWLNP
Histamine H2 receptor (Homo sapiens), sequence (P25021 whole entry): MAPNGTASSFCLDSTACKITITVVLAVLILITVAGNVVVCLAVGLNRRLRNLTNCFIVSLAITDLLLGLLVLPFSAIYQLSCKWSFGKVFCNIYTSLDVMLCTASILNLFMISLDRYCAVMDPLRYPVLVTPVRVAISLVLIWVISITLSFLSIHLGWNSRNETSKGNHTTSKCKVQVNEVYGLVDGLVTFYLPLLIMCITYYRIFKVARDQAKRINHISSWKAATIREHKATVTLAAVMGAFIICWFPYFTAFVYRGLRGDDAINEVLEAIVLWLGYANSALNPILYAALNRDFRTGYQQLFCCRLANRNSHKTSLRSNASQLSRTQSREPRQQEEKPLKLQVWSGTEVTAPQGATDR
Casein kinase I isoform epsilon (Homo sapiens), sequence (P49674 whole entry, looked up, canonical isoform): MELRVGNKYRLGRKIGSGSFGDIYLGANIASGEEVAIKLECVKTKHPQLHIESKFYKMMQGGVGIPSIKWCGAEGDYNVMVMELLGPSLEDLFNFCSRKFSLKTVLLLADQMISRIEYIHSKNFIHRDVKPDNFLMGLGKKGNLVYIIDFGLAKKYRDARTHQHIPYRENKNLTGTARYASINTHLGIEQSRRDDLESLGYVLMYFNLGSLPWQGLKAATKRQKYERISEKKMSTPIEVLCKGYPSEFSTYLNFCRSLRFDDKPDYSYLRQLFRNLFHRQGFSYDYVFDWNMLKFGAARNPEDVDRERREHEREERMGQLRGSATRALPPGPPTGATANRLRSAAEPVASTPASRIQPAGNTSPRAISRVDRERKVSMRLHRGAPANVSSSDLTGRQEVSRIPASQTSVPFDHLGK
Myosin light chain kinase (Homo sapiens), sequence (Q32MK0 whole entry): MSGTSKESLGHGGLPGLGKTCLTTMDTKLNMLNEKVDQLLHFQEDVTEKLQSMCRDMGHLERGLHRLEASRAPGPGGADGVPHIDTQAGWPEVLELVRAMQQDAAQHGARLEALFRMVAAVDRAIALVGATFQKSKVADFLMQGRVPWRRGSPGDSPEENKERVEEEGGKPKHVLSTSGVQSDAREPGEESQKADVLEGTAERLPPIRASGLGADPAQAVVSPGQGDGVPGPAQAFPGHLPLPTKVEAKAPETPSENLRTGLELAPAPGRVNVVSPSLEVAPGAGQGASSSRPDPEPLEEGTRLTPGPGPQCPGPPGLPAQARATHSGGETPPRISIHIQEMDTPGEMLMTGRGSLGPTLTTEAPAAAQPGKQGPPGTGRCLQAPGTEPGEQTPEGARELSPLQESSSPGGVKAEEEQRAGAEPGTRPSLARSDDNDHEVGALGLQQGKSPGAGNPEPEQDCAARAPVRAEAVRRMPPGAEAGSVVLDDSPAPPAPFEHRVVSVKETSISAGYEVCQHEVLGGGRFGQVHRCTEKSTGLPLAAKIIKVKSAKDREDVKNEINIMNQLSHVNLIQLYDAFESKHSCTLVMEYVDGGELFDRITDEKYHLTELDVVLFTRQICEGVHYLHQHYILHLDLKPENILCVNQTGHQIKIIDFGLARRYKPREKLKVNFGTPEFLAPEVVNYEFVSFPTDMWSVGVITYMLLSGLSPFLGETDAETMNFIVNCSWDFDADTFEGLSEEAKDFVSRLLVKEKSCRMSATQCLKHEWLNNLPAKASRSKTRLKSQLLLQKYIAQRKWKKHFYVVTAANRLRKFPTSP
Receptor-type tyrosine-protein kinase FLT3 (Homo sapiens), sequence (P36888 whole entry): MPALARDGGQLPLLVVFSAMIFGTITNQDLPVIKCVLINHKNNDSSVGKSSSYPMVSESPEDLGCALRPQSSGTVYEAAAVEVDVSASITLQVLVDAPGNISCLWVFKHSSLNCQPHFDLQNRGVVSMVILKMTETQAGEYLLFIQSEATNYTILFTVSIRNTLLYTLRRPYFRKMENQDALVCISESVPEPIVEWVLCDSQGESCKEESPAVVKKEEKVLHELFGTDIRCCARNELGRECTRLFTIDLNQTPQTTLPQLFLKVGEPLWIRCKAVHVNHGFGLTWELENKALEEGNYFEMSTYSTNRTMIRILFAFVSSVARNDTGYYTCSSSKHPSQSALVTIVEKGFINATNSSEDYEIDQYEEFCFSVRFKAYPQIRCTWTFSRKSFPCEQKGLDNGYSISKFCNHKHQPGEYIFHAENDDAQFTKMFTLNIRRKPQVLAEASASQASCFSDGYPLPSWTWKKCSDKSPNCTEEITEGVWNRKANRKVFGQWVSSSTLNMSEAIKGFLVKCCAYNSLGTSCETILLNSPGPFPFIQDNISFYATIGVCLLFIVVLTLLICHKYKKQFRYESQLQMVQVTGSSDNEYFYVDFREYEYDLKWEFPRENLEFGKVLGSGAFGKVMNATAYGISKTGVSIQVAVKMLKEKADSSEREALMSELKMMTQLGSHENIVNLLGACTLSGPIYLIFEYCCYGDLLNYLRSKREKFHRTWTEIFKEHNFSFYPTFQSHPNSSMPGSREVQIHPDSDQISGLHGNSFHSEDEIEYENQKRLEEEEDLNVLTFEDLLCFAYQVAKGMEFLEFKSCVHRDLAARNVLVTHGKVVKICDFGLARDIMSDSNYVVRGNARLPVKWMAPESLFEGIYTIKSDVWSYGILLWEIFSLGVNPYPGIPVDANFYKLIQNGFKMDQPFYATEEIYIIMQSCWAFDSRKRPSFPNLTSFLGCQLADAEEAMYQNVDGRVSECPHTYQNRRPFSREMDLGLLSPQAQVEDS
Fibroblast growth factor receptor 4 (Homo sapiens), sequence (P22455 22-802 limits assumed): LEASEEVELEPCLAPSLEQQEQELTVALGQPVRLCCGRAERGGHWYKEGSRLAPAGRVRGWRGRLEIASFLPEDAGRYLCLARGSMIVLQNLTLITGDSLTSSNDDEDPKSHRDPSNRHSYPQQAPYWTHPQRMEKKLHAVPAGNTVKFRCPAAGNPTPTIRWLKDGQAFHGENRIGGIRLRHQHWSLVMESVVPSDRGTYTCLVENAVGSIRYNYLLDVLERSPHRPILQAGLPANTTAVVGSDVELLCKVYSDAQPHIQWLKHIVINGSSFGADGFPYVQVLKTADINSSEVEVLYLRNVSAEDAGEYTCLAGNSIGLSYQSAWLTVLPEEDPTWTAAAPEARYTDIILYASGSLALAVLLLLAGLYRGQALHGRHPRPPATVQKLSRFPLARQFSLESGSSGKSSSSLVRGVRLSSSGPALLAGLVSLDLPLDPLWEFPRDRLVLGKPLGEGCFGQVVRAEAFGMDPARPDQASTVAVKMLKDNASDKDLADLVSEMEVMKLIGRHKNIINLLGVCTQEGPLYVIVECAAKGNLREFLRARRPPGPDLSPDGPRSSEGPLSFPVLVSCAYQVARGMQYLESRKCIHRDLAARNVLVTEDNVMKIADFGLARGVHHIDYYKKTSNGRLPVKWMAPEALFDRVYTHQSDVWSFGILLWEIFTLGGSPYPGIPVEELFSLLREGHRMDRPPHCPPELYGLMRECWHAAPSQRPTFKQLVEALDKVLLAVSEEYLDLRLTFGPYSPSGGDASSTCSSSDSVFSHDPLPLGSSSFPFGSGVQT
Phosphatidylinositol 4,5-bisphosphate 3-kinase catalytic subunit alpha isoform (Homo sapiens), P42336 [E542K], sequence (P42336 whole entry E542K, canonical isoform): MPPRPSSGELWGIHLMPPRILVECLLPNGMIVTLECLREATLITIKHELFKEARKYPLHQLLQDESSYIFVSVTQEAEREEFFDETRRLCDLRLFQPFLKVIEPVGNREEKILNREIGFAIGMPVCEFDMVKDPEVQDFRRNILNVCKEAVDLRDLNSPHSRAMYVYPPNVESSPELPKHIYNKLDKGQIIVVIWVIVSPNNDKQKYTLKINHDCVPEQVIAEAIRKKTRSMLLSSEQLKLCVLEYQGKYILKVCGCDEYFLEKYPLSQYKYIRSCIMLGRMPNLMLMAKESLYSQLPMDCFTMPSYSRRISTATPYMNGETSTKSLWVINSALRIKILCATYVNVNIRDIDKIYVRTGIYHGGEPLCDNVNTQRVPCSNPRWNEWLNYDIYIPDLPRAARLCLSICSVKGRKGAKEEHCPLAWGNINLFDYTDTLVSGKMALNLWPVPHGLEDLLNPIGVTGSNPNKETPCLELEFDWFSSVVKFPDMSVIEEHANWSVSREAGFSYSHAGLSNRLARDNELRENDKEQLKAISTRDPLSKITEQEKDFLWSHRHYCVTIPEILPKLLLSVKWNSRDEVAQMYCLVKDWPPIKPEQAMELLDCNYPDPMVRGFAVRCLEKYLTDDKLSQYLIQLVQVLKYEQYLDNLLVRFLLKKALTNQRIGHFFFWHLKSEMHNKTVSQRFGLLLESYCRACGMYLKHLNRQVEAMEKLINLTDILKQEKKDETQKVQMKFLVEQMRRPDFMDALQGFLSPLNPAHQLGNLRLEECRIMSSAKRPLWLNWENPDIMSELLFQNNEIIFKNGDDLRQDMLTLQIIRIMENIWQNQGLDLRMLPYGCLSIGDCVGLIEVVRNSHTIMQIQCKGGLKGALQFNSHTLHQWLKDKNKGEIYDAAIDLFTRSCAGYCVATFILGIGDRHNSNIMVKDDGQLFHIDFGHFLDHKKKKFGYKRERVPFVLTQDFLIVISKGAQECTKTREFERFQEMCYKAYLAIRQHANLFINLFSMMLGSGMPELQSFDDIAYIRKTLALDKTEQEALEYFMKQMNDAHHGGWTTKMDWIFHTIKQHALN

Cc1nc(N2CC[C@@H](O)C2)ncc1-c1cc(C(F)(F)F)cc2[nH]ncc12 [TP-004] showed a residual activity [1] of 79%, a residual activity [2] of 100% and a residual activity [3] of 70%. For the same compound, the residual activity [4] was 85%, the residual activity [5] was 90% and the residual activity [6] was 100%. It also gave a residual activity [7] of 82%, a residual activity [8] of 82% and a residual activity [9] of 84%. It also gave a residual activity [10] of 76%, a residual activity [11] of 79% and a residual activity [12] of 100%. The residual activity [13] was 95%, the residual activity [14] was 95% and the residual activity [15] was 72%. For the same compound, the residual activity [16] was 100%, the IC50 [17] was 31 nM (active) and the residual activity [18] was 94%. For the same compound, the residual activity [19] was 100%, the inhibition [20] was 7.69% and the residual activity [21] was 100%. It also gave a residual activity [22] of 99%, a residual activity [23] of 52% and a residual activity [24] of 100%. The residual activity [25] was 73%, the residual activity [26] was 100% and the residual activity [27] was 100%. The residual activity [28] was 98%, the residual activity [29] was 49% and the residual activity [30] was 100%. It also gave a residual activity [31] of 100%, a residual activity [32] of 64% and a residual activity [33] of 94%. It also gave an inhibition [34] of 28.6%, a residual activity [35] of 82% and a residual activity [36] of 87%. It also gave a residual activity [37] of 100%, a residual activity [38] of 56% and a residual activity [39] of 100%. The inhibition [40] was -8.45%, the residual activity [41] was 90% and the inhibition [42] was 15.7%. It also gave a residual activity [43] of 99%, a residual activity [44] of 77% and a residual activity [45] of 72%.
